Earlier results as cited in PubChem BioAssay AID1259410 (Chemical Carcinogenesis Research Information System (CCRIS), 2018).

Test system: rodent tumor promotion studies, tumor incidence
Experiment: CCRIS tumor promotion studies
[1] = Carcinogen: 7,12-DIMETHYLBENZ(A)ANTHRACENE, Doses [Carcinogen]: TOP, Route [Carcinogen]: DERMAL, Route [Promoter]: DERMAL, Species: MOUSE, Strain/Sex: FEMALE

CC(=O)OCC(COC(C)=O)OC(C)=O
outcome (Carcinogen: 7,12-Dimethylbenz(a)anthracene, 57-97-6, Doses [Carcinogen]: 100 ug in 100 ul acetone once at 6 wk of age, Doses [Promoter]: 0, 85 mg, daily for 5 d/wk beginning 1 wk after carcinogen administration for 35 wk, study duration 36 wk, Route [Carcinogen]: Dermal, Route [Promoter]: Dermal, Species: Mouse, Strain/Sex: ICR/Female): skin: none | outcome (Carcinogen: 7,12-Dimethylbenz(a)anthracene, 57-97-6, Doses [Carcinogen]: 100 ug in 100 ul acetone once at 6 wk of age, Doses [Promoter]: 0, 85 mg, twice daily for 5 d/wk beginning 1 wk after carcinogen administration for 35 wk, study duration 36 wk, Route [Carcinogen]: Dermal, Route [Promoter]: Dermal, Species: Mouse, Strain/Sex: ICR/Female): skin: none

Oc1cccc(Cl)c1
outcome [1]: integumentary system (skin)

Clc1cnc(Oc2ccc(Oc3ncc(Cl)cc3Cl)cc2)c(Cl)c1
outcome (Carcinogen: N-NITROSODIETHYLAMINE, 55-18-5, Doses [Carcinogen]: 75 MG/KG BW ONCE, Doses [Promoter]: 0, 100O PPM IN DIET FOR DURATION OF STUDY BEGINNING 2 WK POST CARCINOGEN DOSE (STUDY DURATION: 74 WK), Route [Carcinogen]: INTRAPERITONEAL, Route [Promoter]: ORAL, Species: RAT, Strain/Sex: F344/MALE): liver: adenoma; thyroid: follicular cell adenoma | outcome (Carcinogen: N-NITROSODIETHYLAMINE, 55-18-5, Doses [Carcinogen]: 75 MG/KG BW ONCE, Doses [Promoter]: 0, 330 PPM IN DIET FOR DURATION OF STUDY BEGINNING 2 WK POST CARCINOGEN DOSE (STUDY DURATION: 74 WK), Route [Carcinogen]: INTRAPERITONEAL, Route [Promoter]: ORAL, Species: RAT, Strain/Sex: F344/MALE): liver: adenoma | outcome (Carcinogen: N-NITROSODIETHYLAMINE, 55-18-5, Doses [Carcinogen]: 75 MG/KG BW ONCE, Doses [Promoter]: 30 MG/KG IN CORN OIL 1/2 WK BEGINNING 2 WK POST CARCINOGEN DOSE AND CONTINUING FOR 71 WK (STUDY DURATION: 73 WK), Route [Carcinogen]: INTRAPERITONEAL, Route [Promoter]: INTRAPERITONEAL, Species: RAT, Strain/Sex: F344/MALE): nasal cavity: carcinoma | outcome (Carcinogen: N-NITROSODIETHYLAMINE, 55-18-5, Doses [Carcinogen]: 90 MG/KG BW ONCE, Doses [Promoter]: 3 MG/KG BW IN CORN OIL 1/2 WK BEGINNING 2 WK POST CARCINOGEN DOSE AND CONTINUING FOR 24 WK (STUDY DURATION: 55 WK), Route [Carcinogen]: INTRAPERITONEAL, Route [Promoter]: INTRAGASTRIC, Species: MOUSE, Strain/Sex: C57BL/MALE): liver: hepatocellular adenoma or carcinoma | outcome (Carcinogen: N-NITROSODIETHYLAMINE, 55-18-5, Doses [Carcinogen]: 90 MG/KG BW ONCE, Doses [Promoter]: 3 MG/KG BW IN CORN OIL 1/2 WK BEGINNING 2 WK POST CARCINOGEN DOSE AND CONTINUING FOR 24 WK (STUDY DURATION: 55 WK), Route [Carcinogen]: INTRAPERITONEAL, Route [Promoter]: INTRAGASTRIC, Species: MOUSE, Strain/Sex: DBA/MALE): liver: hepatocellular adenoma or carcinoma | outcome (Carcinogen: N-NITROSODIETHYLAMINE, 55-18-5, Doses [Carcinogen]: 90 MG/KG BW ONCE, Doses [Promoter]: 3 MG/KG BW IN CORN OIL 1/2 WK BEGINNING 2 WK POST CARCINOGEN DOSE AND CONTINUING FOR 24 WK (STUDY DURATION: 55 WK), Route [Carcinogen]: INTRAPERITONEAL, Route [Promoter]: INTRAPERITONEAL, Species: MOUSE, Strain/Sex: C57BL/MALE): liver: hepatocellular adenoma or carcinoma | outcome (Carcinogen: N-NITROSODIETHYLAMINE, 55-18-5, Doses [Carcinogen]: 90 MG/KG BW ONCE, Doses [Promoter]: 3 MG/KG BW IN CORN OIL 1/2 WK BEGINNING 2 WK POST CARCINOGEN DOSE AND CONTINUING FOR 24 WK (STUDY DURATION: 55 WK), Route [Carcinogen]: INTRAPERITONEAL, Route [Promoter]: INTRAPERITONEAL, Species: MOUSE, Strain/Sex: DBA/MALE): liver: hepatocellular adenoma or carcinoma

CCCCCCCCCCCCCC
outcome [1]: integumentary system (skin) | outcome (Carcinogen: BENZO(A)PYRENE, Doses [Carcinogen]: TOP, Route [Carcinogen]: DERMAL, Route [Promoter]: DERMAL, Species: MOUSE, Strain/Sex: FEMALE): integumentary system (skin)

CCCCCC1(CCCCCC(=O)OC23C(OC(C)=O)C(C)C4(O)C(C=C(CO)CC5(O)C(=O)C(C)=CC54)C2C3(C)C)OCC(C)(C)N1[O] (stereo not drawn)
outcome (Carcinogen: 7,12-DIMETHYLBENZ[A]ANTHRACENE, 57-97-6, Doses [Carcinogen]: 100 NMOL ONCE, Doses [Promoter]: 0, 20 NMOL 2/WK FOR 24 WK BEGINNING 1 WK POST CARCINOGEN DOSE (STUDY DURATION: 25 WK), Route [Carcinogen]: DERMAL, Route [Promoter]: DERMAL, Species: MOUSE, Strain/Sex: NMRI/FEMALE): skin: tumor

O=C([O-])[C@H](O)[C@@H](O)[C@H](O)[C@H](O)CO.O=C([O-])[C@H](O)[C@@H](O)[C@H](O)[C@H](O)CO.[Cu+2]
outcome (Carcinogen: N-nitrosodiethylamine (DEN) (55-18-5), N-methylnitrosourea (MNU) (684-93-5), 1,2-dimethylhydrazine (DMH) (540-73-8), N-b, Carcinogen: N-nitrosodiethylamine (DEN) (55-18-5), N-methylnitrosourea (MNU) (684-93-5), 1,2-dimethylhydrazine (DMH) (540-73-8), N-b, Doses [Carcinogen]: DEN (100 mg/kg at commencement), MNU (4 injections of 20 mg/kg in first 2 wks), DMH (4 injections of 40 mg/kg in second, Doses [Carcinogen]: DEN (100 mg/kg at commencement), MNU (4 injections of 20 mg/kg in first 2 wks), DMH (4 injections of 40 mg/kg in second, Doses [Promoter]: 0, 10, 300, 3000, 6000 ppm in diet immediately after completion of initiator treatment for 25 wk, Doses [Promoter]: 0, 10, 300, 3000, 6000 ppm in diet immediately after completion of initiator treatment for 25 wk, Route [Carcinogen]: Intraperitoneal (DEN and MNU), subcutaneous (DMH), oral (BBN and DHPN), Route [Carcinogen]: Intraperitoneal (DEN and MNU), subcutaneous (DMH), oral (BBN and DHPN), Route [Promoter]: Oral, Species: Rat, Strain/Sex: BrlHan:WIST Jcl (GALAS)/Male (9-12/group)): liver: gst-p-positive lesions (p<0.05 at 300 and 3000 ppm and p<0.01 at 6000 ppm

CC(C)(C)CC(C)(C)c1ccc(O)cc1
outcome (Carcinogen: N-ETHYL-N'-NITRO-N-NITROSOGUANIDINE, 4245-77-6, Doses [Carcinogen]: 20 MG/KG BW ONCE AT 3 MO OF AGE, Doses [Promoter]: 100 MG/KG BW IN DMSO BEGINNING AT 3 MO OF AGE, 5X/WK FOR FIRST 2 WK, 3X/WK FOR NEXT 11 WK, 2X/WK FOR STUDY DURATION (STU, Route [Carcinogen]: INTRAUTERINE, Route [Promoter]: SUBCUTANEOUS, Species: RAT, Strain/Sex: DONRYU/FEMALE): uterus: adenocarcinoma | outcome (Doses [Carcinogen]: 20 MG/KG ONCE AT 11 WK OF AGE, Doses [Promoter]: 0, 100 MG/KG/D IN DMSO, EVERY OTHER DAY POSTNATAL DAYS 1 THROUGH 5 (STUDY DURATION: 15 MO), Route [Carcinogen]: INTRAUTERINE, Route [Promoter]: SUBCUTANEOUS, Species: RAT, Strain/Sex: DONRYU/FEMALE): uterus: adenocarcinoma | outcome (Doses [Carcinogen]: 20 MG/KG ONCE AT 11 WK OF AGE, Doses [Promoter]: 0, 100 MG/KG/D IN DMSO, EVERY OTHER DAY POSTNATAL DAYS 1 THROUGH 15 (STUDY DURATION: 15 MO), Route [Carcinogen]: INTRAUTERINE, Route [Promoter]: SUBCUTANEOUS, Species: RAT, Strain/Sex: DONRYU/FEMALE): uterus: adenocarcinoma

C[C@]12CC[C@@H]3c4ccc(O)cc4CC[C@H]3[C@@H]1CC[C@@H]2OC(=O)CCc1ccccc1 (tested in a mixture with another compound)
outcome (Carcinogen: N-NITROSOMORPHOLINE, Doses [Carcinogen]: IG, Route [Carcinogen]: GAVAGE, Route [Promoter]: INTRAMUSCULAR, Species: RAT, Strain/Sex: FEMALE): liver

[Cl][Zn][Cl]
outcome (Carcinogen: URETHANE, 51-79-6, Doses [Carcinogen]: 1.5 MG/G ONCE, Doses [Promoter]: 0, 50, 200, 500 UG/ML IN DEIONIZED DRINKING WATER BEGINNING 3 WK PRIOR TO CARCINOGEN DOSE AND CONTINUING FOR 12 WK POST, Doses [Promoter]: 0, 50, 200, 500 UG/ML IN DEIONIZED DRINKING WATER BEGINNING 3 WK PRIOR TO CARCINOGEN DOSE AND CONTINUING FOR 12 WK POST, Route [Carcinogen]: INTRAPERITONEAL, Route [Promoter]: ORAL, Species: MOUSE, Strain/Sex: SWISS/FEMALE): lung: adenoma

CNCCC(Oc1ccc(C(F)(F)F)cc1)c1ccccc1 (stereo not drawn)
outcome (Carcinogen: 7,12-DIMETHYLBENZ[A]ANTHRACENE, 57-97-6, Doses [Carcinogen]: 20 MG IN 2 ML PEANUT OIL ONCE, Doses [Promoter]: 0, 16 MG/M2 5 D/WK FOR 15 WK BEGINNING POST CARCINOGEN DOSE (STUDY DURATION: 15 WK), Route [Carcinogen]: GAVAGE, Route [Promoter]: INTRAPERITONEAL, Species: RAT, Strain/Sex: SPRAGUE-DAWLEY/FEMALE): mammary gland: tumor | outcome (Carcinogen: 7,12-DIMETHYLBENZ[A]ANTHRACENE, 57-97-6, Doses [Carcinogen]: 20 MG IN 2 ML PEANUT OIL ONCE, Doses [Promoter]: 0, 40 MG/M2 5 D/WK FOR 15 WK BEGINNING POST CARCINOGEN DOSE (STUDY DURATION: 15 WK), Route [Carcinogen]: GAVAGE, Route [Promoter]: INTRAPERITONEAL, Species: RAT, Strain/Sex: SPRAGUE-DAWLEY/FEMALE): mammary gland: tumor

Oc1ccc(Cl)cc1Cc1ccccc1
outcome (Carcinogen: 7,12-DIMETHYLBENZ[A]ANTHRACENE, 57-97-6, Doses [Carcinogen]: 50 UG IN ACETONE ONCE, Doses [Promoter]: 3 MG IN ACETONE 3/WK FOR 51 WK (STUDY DURATION: 52 WK), Route [Carcinogen]: DERMAL, Route [Promoter]: DERMAL, Species: MOUSE, Strain/Sex: CD-1/FEMALE): skin: papilloma

C=C(/C=C/C=C(/CO)[C@@H]1CC[C@]2([C@H](CCCO)/C(=C(/C)C=O)CC[C@]2(C)O)[C@@H]1O)CCC=C(C)C
outcome (Carcinogen: 7,12-DIMETHYLBENZ[A]ANTHRACENE, 57-97-6, Doses [Carcinogen]: 100 UG ONCE, Doses [Promoter]: 0, 400 NMOL 2/WK FOR 19 WK BEGINNING 1WK POST CARCINOGEN DOSE (STUDY DURATION: 20 WK), Route [Carcinogen]: DERMAL, Route [Promoter]: DERMAL, Species: MOUSE, Strain/Sex: CD-1/FEMALE): skin: tumor
